SMILES strings stand for the structures.

In the assay the test system is female C57BL/6 mice at the age of 21 months. The assay is described as follows: grip strength test in aged mice. It is filed as in vivo. Particulars: oral for 5 weeks, sobrerol 17.6 or 35.3 mg/kg, clenbuterol 2 mg/kg. How it is done:
The grip strength was measured using a grip strength measuring device for mouse (BIOSEB) (FIG. 6). Specifically, the front limbs of the mice of the Example 3-1 were placed on a wire net attached to an instrument panel capable of monitoring the strength, and the strength to hold the wire net was measured while the tail was gripped and pulled downward. The test was repeated three times in succession.
Experiments were conducted to confirm whether sobrerol increases muscle strength in aged mice. Female C57BL/6 mice at the age of 21 months were adapted to the environment for 2 weeks and then orally administered with drugs for 5 weeks. Specifically, the negative control group was administered with water, the positive control group was administered with clenbuterol at a concentration of 2 mg/kg (mouse), and the sobrerol administration experimental group was orally administered with sobrerol at a concentration of 17.6 or 35.3 mg/kg (mouse). Then, locomotion tests (grip strength, treadmill) were conducted again to verify the effect.
The grip strength test is the same as the Example 3-2.

Turning to `CC(C)(C)NCC(O)c1cc(Cl)c(N)c(Cl)c1` (stereo not shown) [clenbuterol], the “fatigue (grip strength weakening) on repeated grip strength measurement” value is “did not show the increase in fatigue”.

Source of the values: patent publication US10765642B2, “Composition for preventing or treating muscle weakness-related diseases comprising sobrerol” (KOREA RESEARCH INSTITUTE OF BIOSCIENCE AND BIOTECHNOLOGY, priority 2015, dated 2020).
